Source: patent publication US20260028326A1, “COMPOUND BASED ON ISOINDOLINE-SUBSTITUTED GLUTARIMIDE BACKBONE AND USE THEREOF” (GLUETACS THERAPEUTICS (SHANGHAI) CO., LTD., priority 2022, published 2026)

Molecular target: human Cereblon WT GST-tagged protein (Homo sapiens (Human), UniProt Q96SW2)
Experiment: CRBN-binding affinity, HTRF (CEREBLON BINDING kit)
Experimental: The CEREBLON BINDING kits (specification: 10,000 tests; product number: Catalog #64BDCRBNPEH; CISBIO company) was used to determine the CRBN binding ability of the compounds to be tested through a HTRF method (homogeneous time-resolved fluorescence). The specific methods are as follows: • 1. […] Then, 2.5 μL of human Cereblon WT GST-tagged protein solution was added to each well. Finally, 5 μL of the thoroughly mixed Thalidomide-Re reagent and GST Eu antibody working solution were added to each of the aforementioned wells. […] The blank control wells were sequentially added with 2.5 μL of diluent #9 (1×) solution, 2.5 μL of PROTAC binding buffer, and 5 μL of thoroughly mixed Thalidomide-Re reagent and GST Eu antibody working solution. • 4.
The corresponding CRBN binding inhibition rate was calculated using the following method: […]

Sequence of human Cereblon WT GST-tagged protein (Q96SW2 whole entry): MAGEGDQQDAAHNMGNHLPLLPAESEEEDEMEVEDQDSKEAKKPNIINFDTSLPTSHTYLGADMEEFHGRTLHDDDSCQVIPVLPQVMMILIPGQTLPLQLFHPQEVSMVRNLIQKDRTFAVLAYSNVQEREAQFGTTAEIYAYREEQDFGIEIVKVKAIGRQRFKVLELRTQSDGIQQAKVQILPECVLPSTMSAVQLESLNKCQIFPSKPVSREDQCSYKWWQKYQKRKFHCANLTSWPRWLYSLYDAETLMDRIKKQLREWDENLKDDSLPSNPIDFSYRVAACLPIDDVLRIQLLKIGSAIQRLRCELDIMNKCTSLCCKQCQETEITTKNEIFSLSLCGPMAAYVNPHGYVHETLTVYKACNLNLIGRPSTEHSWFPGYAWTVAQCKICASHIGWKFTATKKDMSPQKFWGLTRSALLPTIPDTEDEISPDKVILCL

IC50 [nM]	SMILES
520	O=C1CCC(N2C(=O)c3ccc(N4CC5CCC4CN5Cc4ccccc4-c4ccc(Cl)cc4)cc3C2=O)C(=O)N1 (stereo not drawn) [GT-05374, 5-(5-((4′-chloro-[1,1′-biphenyl]-2-yl)methyl)-2,5-diazabicyclo[2.2.2]octan-2-yl)-2-(2,6-dioxopiperidin-3-yl)isoindoline-1,3-dione]
110	CC1(C)CCC(CN2CC3CCC2CN3c2ccc3c(c2)C(=O)N(C2CCC(=O)NC2=O)C3=O)=C(c2ccc(Cl)cc2)C1 (stereo not drawn) [GT-05379, 5-(5-((4′-chloro-5,5-dimethyl-3,4,5,6-tetrahydro-[1,1′-biphenyl]-2-yl)methyl)-2,5-diazabicyclo[2.2.2]octan-2-yl)-2-(2,6-dioxopiperidin-3-yl)isoindoline-1,3-dione]
410	CC1(C)CCC(CN2CC3CCC2CN3c2ccc3c(c2)C(=O)N(C2CCC(=O)NC2=O)C3=O)=C(c2ccc(F)cc2)C1 (stereo not drawn) [GT-05388, 2-(2,6-dioxopiperidin-3-yl)-5-(5-((4′-fluoro-5,5-dimethyl-3,4,5,6-tetrahydro-[1,1′-biphenyl]-2-yl)methyl)-2,5-diazabicyclo[2.2.2]octan-2-yl)isoindoline-1,3-dione]
440	CC1(C)CCC(CN2CCN(Cc3cc(F)c4c(c3)CN(C3CCC(=O)NC3=O)C4=O)CC2)=C(c2ccc(F)cc2)C1 (stereo not drawn) [GT-05392, 3-(7-fluoro-5-((4-((4′-fluoro-5,5-dimethyl-3,4,5,6-tetrahydro-[1,1′-biphenyl]-2-yl)methyl)piperazin-1-yl)methyl)-1-oxoisoindolin-2-yl)piperidine-2,6-dione]
340	CC1(C)CCC(CN2CCN(Cc3cccc4c3CN(C3CCC(=O)NC3=O)C4=O)CC2)=C(c2ccc(F)cc2)C1 (stereo not drawn) [GT-05393, 3-(4-((4-((4′-fluoro-5,5-dimethyl-3,4,5,6-tetrahydro-[1,1′-biphenyl]-2-yl)methyl)piperazin-1-yl)methyl)-1-oxoisoindolin-2-yl)piperidine-2,6-dione]
490	CC1(C)CCC(CN2CCN(Cc3ccc4c(c3)C(=O)N(C3CCC(=O)NC3=O)C4)CC2)=C(c2ccc(F)cc2)C1 (stereo not drawn) [GT-05394, 3-(6-((4-((4′-fluoro-5,5-dimethyl-3,4,5,6-tetrahydro-[1,1′-biphenyl]-2-yl)methyl)piperazin-1-yl)methyl)-1-oxoisoindolin-2-yl)piperidine-2,6-dione]
1050	CC1(C)CCC(CN2CC3CN(Cc4ccc5c(c4)CN(C4CCC(=O)NC4=O)C5=O)CC3C2)=C(c2ccc(F)cc2)C1 (stereo not drawn) [GT-05398, 3-(5-((5-((4′-fluoro-5,5-dimethyl-3,4,5,6-tetrahydro-[1,1′-biphenyl]-2-yl)methyl)hexahydropyrrolo[3,4-c]pyrrol-2(1H)-yl)methyl)-1-oxoisoindolin-2-yl)piperidine-2,6-dione]
500	CC1(C)CCC(C(=O)N2CC3CN(Cc4ccc5c(c4)CN(C4CCC(=O)NC4=O)C5=O)CC3C2)=C(c2ccc(F)cc2)C1 (stereo not drawn) [GT-05405, 3-(5-((5-(4′-fluoro-5,5-dimethyl-3,4,5,6-tetrahydro-[1,1′-biphenyl]-2-carbonyl)hexahydropyrrolo[3,4-c]pyrrol-2(1H)-yl)methyl)-1-oxoisoindolin-2-yl)piperidine-2,6-dione]
1480	CC1(C)CCC(C(=O)N2CCN(Nc3ccc4c(c3)CN(C3CCC(=O)NC3=O)C4=O)CC2)=C(c2ccc(Cl)cc2)C1 (stereo not drawn) [GT-05417, 3-(5-((4-(4′-chloro-5,5-dimethyl-3,4,5,6-tetrahydro-[1,1′-biphenyl]-2-carbonyl)piperazin-1-yl)amino)-1-oxoisoindolin-2-yl)piperidine-2,6-dione]
540	CC1(C)CCC(C(=O)N2CCC(Cc3ccc4c(c3)CN(C3CCC(=O)NC3=O)C4=O)CC2)=C(c2ccc(Cl)cc2)C1 (stereo not drawn) [GT-05418, 3-(5-((1-(4′-chloro-5,5-dimethyl-3,4,5,6-tetrahydro-[1,1′-biphenyl]-2-carbonyl)piperidin-4-yl)methyl)-1-oxoisoindolin-2-yl)piperidine-2,6-dione]
720	CC1(C)CCC(C(=O)N2CC(Cc3ccc4c(c3)CN(C3CCC(=O)NC3=O)C4=O)C2)=C(c2ccc(Cl)cc2)C1 (stereo not drawn) [GT-05419, 3-(5-((1-(4′-chloro-5,5-dimethyl-3,4,5,6-tetrahydro-[1,1′-biphenyl]-2-carbonyl)azetidin-3-yl)methyl)-1-oxoisoindolin-2-yl)piperidine-2,6-dione]
950	CC1(C)CCC(CN2CC(O)(C(O)c3ccc4c(c3)CN(C3CCC(=O)NC3=O)C4=O)C2)=C(c2ccc(Cl)cc2)C1 (stereo not drawn) [GT-05427, 3-(5-((1-((4′-chloro-5,5-dimethyl-3,4,5,6-tetrahydro-[1,1′-biphenyl]-2-yl)methyl)-3-hydroxyazetidin-3-yl)(hydroxy)methyl)-1-oxoisoindolin-2-yl)piperidine-2,6-dione]
1080	CC1(C)CCC(CN2CC(Cc3ccc4c(c3)CN(C3CCC(=O)NC3=O)C4=O)C2)=C(c2ccc(Cl)cc2)C1 (stereo not drawn) [GT-05428, 3-(5-((1-((4′-chloro-5,5-dimethyl-3,4,5,6-tetrahydro-[1,1′-biphenyl]-2-yl)methyl)azetidin-3-yl)methyl)-1-oxoisoindolin-2-yl)piperidine-2,6-dione]
1570	CC1(C)CCC(CN2C[C@H]3C[C@@H]2CN3C(=O)c2ccc3c(c2)CN(C2CCC(=O)NC2=O)C3=O)=C(c2ccc(Cl)cc2)C1 (stereo partly drawn) [GT-05441, 3-(5-((1R,4R)-5-((4′-chloro-5,5-dimethyl-3,4,5,6-tetrahydro-[1,1′-biphenyl]-2-yl)methyl)-2,5-diazabicyclo[2.2.1]heptane-2-carbonyl)-1-oxoisoindolin-2-yl)piperidine-2,6-dione]
670	CC1(C)CCC(CN2C[C@@H]3C[C@H]2CN3C(=O)c2ccc3c(c2)CN(C2CCC(=O)NC2=O)C3=O)=C(c2ccc(Cl)cc2)C1 (stereo partly drawn) [GT-05442, 3-(5-((1S,4S)-5-((4′-chloro-5,5-dimethyl-3,4,5,6-tetrahydro-[1,1′-biphenyl]-2-yl)methyl)-2,5-diazabicyclo[2.2.1]heptane-2-carbonyl)-1-oxoisoindolin-2-yl)piperidine-2,6-dione]
1910	CC1(C)CCC(CN2CCN(C(=O)c3ccc4c(c3)CN(C3CCC(=O)NC3=O)C4=O)CC2)=C(c2ccc(Cl)cc2)C1 (stereo not drawn) [GT-05445, 3-(5-(4-((4′-chloro-5,5-dimethyl-3,4,5,6-tetrahydro-[1,1′-biphenyl]-2-yl)methyl)piperazine-1-carbonyl)-1-oxoisoindolin-2-yl)piperidine-2,6-dione]
1150	CC1(C)CCC(CN2CC3CN(C(=O)c4ccc5c(c4)CN(C4CCC(=O)NC4=O)C5=O)CC3C2)=C(c2ccc(F)cc2)C1 (stereo not drawn) [GT-05447, 3-(5-(5-((4′-fluoro-5,5-dimethyl-3,4,5,6-tetrahydro-[1,1′-biphenyl]-2-yl)methyl)octahydropyrrolo[3,4-c]pyrrole-2-carbonyl)-1-oxoisoindolin-2-yl)piperidine-2,6-dione]

SMILES	IC50 [nM]
O=C1CCC(N2C(=O)c3ccc(N4CC5CC(C4)N5Cc4ccccc4-c4ccc(Cl)cc4)cc3C2=O)C(=O)N1 (stereo not drawn) [GT-05373, 5-(6-((4′-chloro-[1,1′-biphenyl]-2-yl)methyl)-3,6-diazabicyclo[3.1.1]heptan-3-yl)-2-(2,6-dioxopiperidin-3-yl)isoindoline-1,3-dione]	1490
CC1(C)CCC(CN2C3CC2CN(c2ccc4c(c2)C(=O)N(C2CCC(=O)NC2=O)C4=O)C3)=C(c2ccc(Cl)cc2)C1 (stereo not drawn) [GT-05378, 5-(6-((4′-chloro-5,5-dimethyl-3,4,5,6-tetrahydro-[1,1′-biphenyl]-2-yl)methyl)-3,6-diazabicyclo[3.1.1]heptan-3-yl)-2-(2,6-dioxopiperidin-3-yl)isoindoline-1,3-dione]	1770
CC1(C)CCC(CN2CC3CC(C2)N3c2ccc3c(c2)C(=O)N(C2CCC(=O)NC2=O)C3=O)=C(c2ccc(F)cc2)C1 (stereo not drawn) [GT-05386, 2-(2,6-dioxopiperidin-3-yl)-5-(3-((4′-fluoro-5,5-dimethyl-3,4,5,6-tetrahydro-[1,1′-biphenyl]-2-yl)methyl)-3,6-diazabicyclo[3.1.1]heptan-6-yl)isoindoline-1,3-dione]	1460
CC1(C)CCC(CN2C3CC2CN(c2ccc4c(c2)C(=O)N(C2CCC(=O)NC2=O)C4=O)C3)=C(c2ccc(F)cc2)C1 (stereo not drawn) [GT-05387, 2-(2,6-dioxopiperidin-3-yl)-5-(6-((4′-fluoro-5,5-dimethyl-3,4,5,6-tetrahydro-[1,1′-biphenyl]-2-yl)methyl)-3,6-diazabicyclo[3.1.1]heptan-3-yl)isoindoline-1,3-dione]	810
CC1(C)CCC(CN2C3CCC2CN(c2ccc4c(c2)CN(C2CCC(=O)NC2=O)C4=O)C3)=C(c2ccc(Cl)cc2)C1 (stereo not drawn) [GT-05429, 3-(5-(8-((4′-chloro-5,5-dimethyl-3,4,5,6-tetrahydro-[1,1′-biphenyl]-2-yl)methyl)-3,8-diazabicyclo[3.2.1]octan-3-yl)-1-oxoisoindolin-2-yl)piperidine-2,6-dione]	1490
CC1(C)CCC(CN2CC3CC(C2)N3C(=O)c2ccc3c(c2)CN(C2CCC(=O)NC2=O)C3=O)=C(c2ccc(Cl)cc2)C1 (stereo not drawn) [GT-05440, 3-(5-(3-((4′-chloro-5,5-dimethyl-3,4,5,6-tetrahydro-[1,1′-biphenyl]-2-yl)methyl)-3,6-diazabicyclo[3.1.1]heptane-6-carbonyl)-1-oxoisoindolin-2-yl)piperidine-2,6-dione]	940
CC1(C)CCC(CN2C3CCC2CN(C(=O)c2ccc4c(c2)CN(C2CCC(=O)NC2=O)C4=O)C3)=C(c2ccc(Cl)cc2)C1 (stereo not drawn) [GT-05446, 3-(5-(8-((4′-chloro-5,5-dimethyl-3,4,5,6-tetrahydro-[1,1′-biphenyl]-2-yl)methyl)-3,8-diazabicyclo[3.2.1]octane-3-carbonyl)-1-oxoisoindolin-2-yl)piperidine-2,6-dione]	1870
